From the NIST ThermoML archive (doi:10.1016/j.fluid.2006.06.017)
Numbers after ± are expanded uncertainties.

Legend:
[1] = Liquid; for mass density: 298.15 K, 101.33 kPa; for vapor or sublimation pressure: Ebulliometric method (Recirculating still)
[2] = refractive index (Na D-line) (dimensionless); conditions: 298.15 K; 101.33 kPa; Liquid; Standard Abbe refractometry

CCCCO [butan-1-ol]
Conditions	mass density [kg/m3]	refractive index
[1]	805.65 ± 0.22	–
[2]	–	1.3976 ± 0.0005

[1]
Conditions	vapor or sublimation pressure [kPa]
351.18 K	20 ± 1
390.75 K	101.3 ± 0.2

CCCOCCC [dipropyl ether]
Conditions	mass density [kg/m3]	refractive index
[1]	741.81 ± 0.56	–
[2]	–	1.3784 ± 0.0005

[1]
Conditions	vapor or sublimation pressure [kPa]
302.6 K	10.47 ± 0.2
306.36 K	12.43 ± 0.2
310.41 K	14.95 ± 0.2
313.39 K	16.91 ± 0.2
315.97 K	18.97 ± 0.2
317.33 K	20 ± 1
318.45 K	20.97 ± 0.2
320.69 K	22.93 ± 0.2
323.79 K	25.95 ± 0.2
326.58 K	28.97 ± 0.21
329.15 K	31.95 ± 0.21
331.52 K	34.95 ± 0.21
333.76 K	37.95 ± 0.21
335.79 K	40.9 ± 0.21
337.8 K	43.95 ± 0.21
339.62 K	46.85 ± 0.21
341.27 K	49.7 ± 0.21
343.07 K	52.91 ± 0.22
345.22 K	56.95 ± 0.22
347.19 K	60.85 ± 0.22
349.07 K	64.87 ± 0.22
351.36 K	69.9 ± 0.22
353.45 K	74.84 ± 0.23
355.48 K	79.91 ± 0.23
357.37 K	84.8 ± 0.23
359.21 K	89.75 ± 0.23
360.93 K	94.65 ± 0.24
363.16 K	101.3 ± 0.24

CCCO [propan-1-ol]
Conditions	mass density [kg/m3]	refractive index
[1]	799.62 ± 0.48	–
[2]	–	1.3836 ± 0.0005

[1]
Conditions	vapor or sublimation pressure [kPa]
332.63 K	20 ± 1
369.75 K	101.3 ± 0.2
